Test results published in patent US20030186817A1, “SUBSTITUTED 2,4-DIAMINO-1,3,5-TRIAZINES, PROCESSES FOR THEIR PREPARATION AND THEIR USE AS HERBICIDES AND PLANT GROWTH REGULATORS” (priority 1998, published 2003).

What was measured:
[1] = tested on: Stellaria media, Amaranthus retroflexus, Sinapis avreuse, Avena fatura, Lolium multiflorum and Setaria viridis; assay: Pre-emergence action against weeds (greenhouse pot test, visual rating); assay type: in vivo; conditions: application rate of 3.0 kg or less of active substance per hectare, trial period of 3 to 4 weeks
Source text: Seeds of mono- and dicotyledonous weed plants are placed in sandy loam soil in cardboard pots and covered with soil. The novel compounds, formulated as wettable powders or emulsion concentrates, are then applied to the surface of the soil cover in the form of an aqueous suspension or emulsion at an application rate of from 600 to 800 l of water/ha (converted), in various dosages. After the treatment, the pots are placed in a greenhouse and kept under good growth conditions for the weeds. After the test plants have emerged after a trial period of 3 to 4 weeks, the damage to the plants or the negative effect on emergence is rated visually by comparison with untreated controls. As shown by the test results, the novel compounds have good herbicidal pre-emergence activity against a broad spectrum of weed grasses and broad-leaved weeds.

[2] = tested on: Stellaria media, Amaranthus retroflexus, Sinapis avreuse, Avena fatura, Lolium multiflorum and Setaria viridis; assay: Post-emergence action against weeds (greenhouse pot test, visual rating); assay type: in vivo; conditions: three-leaf stage, application rate of 3.0 kg or less of active substance per hectare, 3 to 4 weeks in greenhouse
Experimental: Seeds of mono- and dicotyledonous weeds are placed in sandy loam soil in cardboard pots, covered with soil and cultivated in a greenhouse under good growth conditions. Two to three weeks after sowing, the test plants are treated at the three-leaf stage. The novel compounds, formulated as wettable powders or emulsion concentrates, are sprayed in various dosages onto the green parts of the plant at an application rate of from 600 to 8001 of water/ha (converted), and, after the test plants have remained in the greenhouse for 3 to 4 weeks under optimum growth conditions, the action of the preparations is rated visually by comparison with untreated controls. The novel compositions also have good post-emergence herbicidal activity against a broad spectrum of economically important weed grasses and broad-leaved weeds.

Compound | herbicidal activity pre-emergence (damage to the plants or negative effect on emergence, rated visually) [1] | herbicidal activity post-emergence (rated visually) [2]
CCC(CCOc1cc(F)cc(F)c1)Nc1nc(N)nc(C(C)C)n1 (stereo not shown) [Example 305] | good and in most cases very good herbicidal activity | good and in most cases very good herbicidal activity
Cc1cc(C)cc(CON=CCNc2nc(N)nc(C(C)C)n2)c1 [Example 1251] | good and in most cases very good herbicidal activity | good and in most cases very good herbicidal activity
CC(C)c1nc(N)nc(NCCOC(=O)c2cccc(C(F)(F)F)c2)n1 [Example 80] |  | good and in most cases very good herbicidal activity
CCC(CCCCOc1ccccc1)Nc1nc(N)nc(C(F)(F)C(F)F)n1 (stereo not shown) [Example 605] | good and in most cases very good herbicidal activity | good and in most cases very good herbicidal activity
CCCc1nc(N)nc(NC(C)COCCOc2ccccc2)n1 (stereo not shown) [Example 1404] | good and in most cases very good herbicidal activity | good and in most cases very good herbicidal activity
Cc1cccc(CNC(=O)C(C)Nc2nc(N)nc(C(C)(C)F)n2)c1 (stereo not shown) [Example 926] | good and in most cases very good herbicidal activity | good and in most cases very good herbicidal activity
CCC(COCCOc1ccccc1)Nc1nc(N)nc(C(C)C)n1 (stereo not shown) [Example 1345] | good and in most cases very good herbicidal activity | good and in most cases very good herbicidal activity
Cc1cc(C)cc(COCC(C)Nc2nc(N)nc(C(C)(C)F)n2)c1 (stereo not shown) [Example 64] | good and in most cases very good herbicidal activity | 
CCC(CCCOc1cccc(C)c1)Nc1nc(N)nc(C(C)C)n1 (stereo not shown) [Example 553] | good and in most cases very good herbicidal activity | good and in most cases very good herbicidal activity
CC(C)(F)c1nc(N)nc(NC(CCCOc2ccccc2)C2CC2)n1 (stereo not shown) [Example 528] | good and in most cases very good herbicidal activity | good and in most cases very good herbicidal activity
CC(C)(F)c1nc(N)nc(NC2CCCCC2COc2ccccc2)n1 (stereo not shown) [Example 869] | good and in most cases very good herbicidal activity | good and in most cases very good herbicidal activity
CC(CCCCOc1ccccc1)Nc1nc(N)nc(C(C)(C)F)n1 (stereo not shown) [Example 609] | good and in most cases very good herbicidal activity | good and in most cases very good herbicidal activity
CCC(COCCOc1ccccc1)Nc1nc(N)nc(C(C)F)n1 (stereo not shown) [Example 1346] | good and in most cases very good herbicidal activity | good and in most cases very good herbicidal activity
CC(COC(=O)c1cccc(C(F)(F)F)c1)Nc1nc(N)nc(C(C)C)n1 (stereo not shown) [Example 78] | good and in most cases very good herbicidal activity | good and in most cases very good herbicidal activity
CCCCc1ccc(C(=O)OCC(C)Nc2nc(N)nc(C(C)C)n2)cc1 (stereo not shown) [Example 184] |  | good and in most cases very good herbicidal activity
Cc1cc(C)cc(CON=CCNc2nc(N)nc(C(C)F)n2)c1 (stereo not shown) [Example 1234] | good and in most cases very good herbicidal activity | good and in most cases very good herbicidal activity
Nc1nc(NC(CCCCOc2ccccc2)C2CC2)nc(C(F)(F)C(F)F)n1 (stereo not shown) [Example 645] | good and in most cases very good herbicidal activity | good and in most cases very good herbicidal activity
CC(CCCOc1ccccc1)Nc1nc(N)nc(C(C)C)n1 (stereo not shown) [Example 531] | good and in most cases very good herbicidal activity | good and in most cases very good herbicidal activity

Compound | herbicidal activity pre-emergence (damage to the plants or negative effect on emergence, rated visually) [1] | herbicidal activity post-emergence (rated visually) [2]
Cc1cccc(OCCCC(Nc2nc(N)nc(C(C)(C)F)n2)C2CC2)c1 (stereo not shown) [Example 582] | good and in most cases very good herbicidal activity | good and in most cases very good herbicidal activity
CC(F)c1nc(N)nc(NC2CCCCC2COc2ccccc2)n1 (stereo not shown) [Example 870] | good and in most cases very good herbicidal activity | good and in most cases very good herbicidal activity
Cc1cc(C)cc(OCCC(C)Nc2nc(N)nc(C(F)(F)C(F)F)n2)c1 (stereo not shown) [Example 329] | good and in most cases very good herbicidal activity | 
CC(F)c1nc(N)nc(NCC=NOCc2ccccc2)n1 (stereo not shown) [Example 1307] | good and in most cases very good herbicidal activity | good and in most cases very good herbicidal activity
Cc1cc(C)cc(CON=CCNc2nc(N)nc(C(C)(C)F)n2)c1 [Example 1236] | good and in most cases very good herbicidal activity | good and in most cases very good herbicidal activity
CC(C)(F)c1nc(N)nc(NCC=NOCc2ccccc2)n1 [Example 1252] | good and in most cases very good herbicidal activity | good and in most cases very good herbicidal activity
CC(CCCCOc1ccccc1)Nc1nc(N)nc(C(C)F)n1 (stereo not shown) [Example 626] | good and in most cases very good herbicidal activity | good and in most cases very good herbicidal activity
Cc1cccc(CNC(=O)C(C)Nc2nc(N)nc(C(C)C)n2)c1 (stereo not shown) [Example 1005] | good and in most cases very good herbicidal activity | good and in most cases very good herbicidal activity
CC(CCCOc1ccccc1)Nc1nc(N)nc(C(C)(C)F)n1 (stereo not shown) [Example 501] | good and in most cases very good herbicidal activity | good and in most cases very good herbicidal activity
Cc1cc(C)cc(OCCC(C)Nc2nc(N)nc(C(C)(C)F)n2)c1 (stereo not shown) [Example 282] | good and in most cases very good herbicidal activity | 
CCC(CCCCOc1ccccc1)Nc1nc(N)nc(C(C)(C)F)n1 (stereo not shown) [Example 598] | good and in most cases very good herbicidal activity | good and in most cases very good herbicidal activity
CCC(COCCOc1cccc(Cl)c1)Nc1nc(N)nc(C(C)(C)F)n1 (stereo not shown) [Example 1364] | good and in most cases very good herbicidal activity | good and in most cases very good herbicidal activity
CC(C)c1nc(N)nc(NCCOC(=O)c2ccccc2Cl)n1 [Example 20] |  | good and in most cases very good herbicidal activity
Cc1ccccc1C(=O)OCCNc1nc(N)nc(C(C)C)n1 [Example 43] |  | good and in most cases very good herbicidal activity
Cc1cc(C)cc(OCCC(C)Nc2nc(N)nc(C(C)C)n2)c1 (stereo not shown) [Example 339] | good and in most cases very good herbicidal activity | 
CC(COCc1cccc(Br)c1)Nc1nc(N)nc(C(C)(C)F)n1 (stereo not shown) [Example 76] | good and in most cases very good herbicidal activity | 
CC(COCc1ccc(Cl)cc1)Nc1nc(N)nc(C(C)(C)F)n1 (stereo not shown) [Example 167] | good and in most cases very good herbicidal activity | 
CCC(COC(=O)c1ccc(F)cc1Cl)Nc1nc(N)nc(C(C)C)n1 (stereo not shown) [Example 23] |  | good and in most cases very good herbicidal activity
